Data as given in patent US20100029673A1, “THERAPEUTIC AGENTS COMPRISING AN ANTI-ANGIOGENIC AGENT IN COMBINATION WITH AN SRC-INHIBITOR AND THEIR THERAPEUTIC USE” (AstraZeneca AB, priority 2003, published 2010).

Columns and labels:
[1] = test system: normotensive rats (Alderley Park strain, male animals); assay: Measurement of blood pressure in conscious rats by radio-telemetry; assay type: in vivo, rat; details: single dose p.o. of a combination of 1.5 mg/kg of VTK-1 and 25 mg/kg of Src-1 vs control citrate buffer vehicle; FIGS. 1-3
Method: Blood pressure was measured using commercially-available radio-telemetry equipment (Data Sciences International, Saint Paul, Minn., USA) which provides a means for the remote measurement of the blood pressure (BP), heart rate and activity of a conscious, unrestrained laboratory animal such as a rat. Measurements obtained using this system have the advantage that the test animal is free from stresses induced by surgery and/or restraint.
The equipment comprises a pressure transducer (Code No. TA11PA-C40; hereinafter the ‘pressure transducer implant’) that is implanted into the abdomen of a laboratory rat. The transducer transmits a radio signal indicating the pressure in the aorta of the animal and the signal is detected by a receiver (RA1010) placed under the plastic cage which houses the animal. The signal is recorded and evaluated automatically by pre-written computer software (DataQuest 2.1 that may be installed on a suitable computer such as an IBM-compatible personal computer containing an Intel™ 486 processor). […]
The animals were housed in a facility using a 12 hour cycle of light and dark. […] Blood pressure data were recorded from each animal every 10 minutes throughout each Study.
Typically, on day 1, each of a group of 3 rats was dosed p.o. at approximately 9.00 am with control vehicle and blood pressure data were recorded during the ensuing 24 hour period. […]

dog coronary arteries = details: cited from earlier work
conscious rats = details: cited from earlier work
anaesthetized rats = details: 15 μg/kg bFGF; cited from earlier work

## CC(=O)N1CCN(CCOc2cc(OC(C)C)c3c(Nc4c(Cl)ccc5c4OCO5)ncnc3c2)CC1 [Src-1, 7-[2-(4-acetylpiperazin-1-yl)ethoxy]-4-(6-chloro-2,3-methylenedioxyanilino)-5-isopropoxyquinazoline]
[1]
  contrasting blood pressure effects (diastolic blood pressure profile): substantially counter-balanced

## COc1cc2c(Oc3ccc4[nH]c(C)cc4c3F)ncnc2cc1OCCCN1CCCCC1 [VTK-1, 4-(4-fluoro-2-methylindol-5-yloxy)-6-methoxy-7-(3-piperidinopropoxy)quinazoline]
[1]
  contrasting blood pressure effects (diastolic blood pressure profile): substantially counter-balanced

## VEGF
Dog coronary arteries
  effect on dog coronary arteries in vitro: dilate dog coronary arteries
Conscious rats; VEGF 250 μg/kg, conscious rats
  return to normal blood pressure: ≤ 20 min
Conscious rats; conscious rat
  effect on blood pressure in the conscious rat: induce hypotension

## bFGF: basic fibroblast growth factor
Anaesthetized rats
  blood pressure returning to normal: ≤ 30 min
